The record followed here is patent US20040224939A1, “Antibacterial agents” (priority 2003, published 2004).

Values after ≈ are worked out from the molar mass of the structure shown.

The test system of one assay is E. coli Tol C. Description: Antibacterial assay (Test A), standard microtitration MIC, Gram negative. The format is cell-based. Particulars: for MIC: Escherichia coli, read-out: Minimum Inhibitory Concentrations, E. coli Tol C. The protocol:
(§1) Test A—Antibacterial Assays
(§2) The compounds of the present invention were tested against an assortment of Gram-negative and Gram-positive organisms using standard microtitration techniques (Cohen et. al., Antimicrob., 1985;28:766; Heifetz, et. al., Antimicrob., 1974;6:124).

A further assay has as its system H. influenzae H13542. The description is as above. Format: cell-based. As to conditions: Gram Negative Bacteria, strain H13542; for MIC: Haemophilus influenzae, read-out: Minimum Inhibitory Concentrations, H. influenzae H13542. How it is done:
as §1, §2

Another assay relates to M. catarrhalis BC3534. The description is as above. The format is cell-based. Particulars: Gram Negative Bacteria, strain BC3534; for MIC: Moraxella catarrhalis, read-out: Minimum Inhibitory Concentrations, M. catarrhalis BC3534. How it is done:
as §1, §2

The subject of the next assay is E. faecalis MGH-2. Nature of the assay: Antibacterial assay (Test A), standard microtitration MIC, Gram positive. The format is cell-based. Particulars: Gram Positive Bacteria, strain MGH-2; for MIC: Enterococcus faecalis, MGH2, read-out: Minimum Inhibitory Concentrations, E. faecalis MGH-2. How it is done: as §1, §2
The test system of the next assay is S pyogenes C203. Described as above. Particulars: Gram Positive Bacteria, strain C203; for MIC: read-out: Minimum Inhibitory Concentrations, S pyogenes C203. The format is cell-based. How it is done: as §1, §2
The subject of a further assay is S. aureus UC-76. Described as above. As to conditions: Gram Positive Bacteria, strain UC-76; for MIC: Staphylococcus aureus, UC76, read-out: Minimum Inhibitory Concentrations, S. aureus UC-76. The format is cell-based. The protocol:
as §1, §2

The subject of assay [1] is E. coli transcription and translation (TnT), E. coli S30 fraction. Description: E. coli transcription and translation (TnT) assay, cell free, luciferase luminescence.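 Further: printed under a heading of minimum inhibitory concentration in µg/mL.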 Particulars: cell free E. coli S30, firefly luciferase plasmid pBESTluc, 20 minutes at room temperature. Format: biochemical.

For `CC(=O)NC[C@H]1CN(c2ccc3c(c2)C=CCCC3)C(=O)O1`, the MIC with E. coli Tol C is more than 64 µg/mL; in the assay with H. influenzae H13542 it was more than 64 µg/mL; in the assay with M. catarrhalis BC3534 it was 32 µg/mL (≈ 107 µM); with E. faecalis MGH-2, 4 µg/mL (≈ 13.3 µM); in the assay on S pyogenes C203 it was 2 µg/mL (≈ 6.66 µM); in the assay on S. aureus UC-76 it was 4 µg/mL (≈ 13.3 µM).

As to `CC(=O)NC[C@H]1CN(c2ccc3c(c2)CCN(C(=O)Cc2cccs2)CC3)C(=O)O1`, the MIC with E. coli Tol C is more than 64 µg/mL; with H. influenzae H13542 it was more than 64 µg/mL; in the assay on M. catarrhalis BC3534 it was 16 µg/mL (≈ 37.4 µM); in the assay with E. faecalis MGH-2 it was 0.25 µg/mL (≈ 0.585 µM); in the assay with S pyogenes C203, 0.125 µg/mL (≈ 0.292 µM); in the assay on S. aureus UC-76 it was 0.25 µg/mL (≈ 0.585 µM). Also, the “Inhibitory concentration in E. coli cell-free transcription/translation assay” value in assay [1] was 2.3 µg/mL.

On to `CC(=O)NC[C@H]1CN(c2ccc3c(c2)CCCC(Cc2ccsc2)C3=O)C(=O)O1` (stereo partly shown), for which the MIC in the assay with E. coli Tol C was more than 64 µg/mL; in the assay with H. influenzae H13542, 2 µg/mL (≈ 4.85 µM); with M. catarrhalis BC3534, 1 µg/mL (≈ 2.42 µM); in the assay with E. faecalis MGH-2 it was 0.5 µg/mL (≈ 1.21 µM); in the assay on S pyogenes C203, 0.25 µg/mL (≈ 0.606 µM); in the assay with S. aureus UC-76 it was 0.25 µg/mL (≈ 0.606 µM). In addition, the “Inhibitory concentration in E. coli cell-free transcription/translation assay” value in assay [1] came out at 0.84 µg/mL.

On to `COC(=O)C1CCCc2cc(N3C[C@H](CNC(C)=O)OC3=O)ccc2C1=O` (stereo partly shown), for which the MIC in the assay on E. coli Tol C was more than 64 µg/mL; with H. influenzae H13542, 32 µg/mL (≈ 85.5 µM); in the assay on M. catarrhalis BC3534 it was 16 µg/mL (≈ 42.7 µM); in the assay with E. faecalis MGH-2 it was 2 µg/mL (≈ 5.34 µM); in the assay with S pyogenes C203, 4 µg/mL (≈ 10.7 µM); in the assay with S. aureus UC-76 it was 4 µg/mL (≈ 10.7 µM). Further, in assay [1], the “Inhibitory concentration in E. coli cell-free transcription/translation assay” value was 4.7 µg/mL.

Regarding `CC(=O)NCC1CN(c2ccc3c(c2)CCCCC3=O)C(=O)O1` (stereo not shown) [Example 2, N-[2-Oxo-3-(5-oxo-6,7,8,9-tetrahydro-5H-benzocyclohepten-2-yl)-oxazolidin-5-ylmethyl]-acetamide], the MIC was more than 64 µg/mL in the assay with E. coli Tol C; 8 µg/mL (≈ 25.3 µM) in the assay on H. influenzae H13542; 4 µg/mL (≈ 12.6 µM) in the assay on M. catarrhalis BC3534; more than 64 µg/mL in the assay with E. faecalis MGH-2; more than 64 µg/mL in the assay on S pyogenes C203; more than 64 µg/mL in the assay on S. aureus UC-76. Further, in assay [1], the “Inhibitory concentration in E. coli cell-free transcription/translation assay” value is 3.9 µg/mL.

With `CC(=O)NCC1CN(c2ccc3c(c2)CCC(=O)CC3)C(=O)O1` (stereo not shown) [Example 4, N-[2-Oxo-3-(7-oxo-6,7,8,9-tetrahydro-5H-benzocyclohepten-2-yl)-oxazolidin-5-ylmethyl]-acetamide], the MIC in the assay with E. coli Tol C was more than 64 µg/mL; in the assay with H. influenzae H13542 it was 64 µg/mL (≈ 202 µM); with M. catarrhalis BC3534, 32 µg/mL (≈ 101 µM); in the assay with E. faecalis MGH-2 it was 8 µg/mL (≈ 25.3 µM); with S pyogenes C203 it was 4 µg/mL (≈ 12.6 µM); with S. aureus UC-76, 4 µg/mL (≈ 12.6 µM). Further, the “Inhibitory concentration in E. coli cell-free transcription/translation assay” value in assay [1] came to 8.2 µg/mL.

With `CC(=O)NCC1CN(c2ccc3c(c2)CC(=O)CCC3)C(=O)O1` (stereo not shown) [Example 5, N-[2-Oxo-3-(8-oxo-6,7,8,9-tetrahydro-5H-benzocyclohepten-2-yl)-oxazolidin-5-ylmethyl]-acetamide], the MIC with E. coli Tol C is more than 64 µg/mL; in the assay on H. influenzae H13542 it was 64 µg/mL (≈ 202 µM); with M. catarrhalis BC3534, 64 µg/mL (≈ 202 µM); with E. faecalis MGH-2 it was 16 µg/mL (≈ 50.6 µM); with S pyogenes C203 it was 8 µg/mL (≈ 25.3 µM); in the assay on S. aureus UC-76, 8 µg/mL (≈ 25.3 µM). Moreover, the “Inhibitory concentration in E. coli cell-free transcription/translation assay” value in assay [1] is 2.3 µg/mL.

Consider `CC(=O)NCC1CN(c2ccc3c(c2)C=CCCC3)C(=O)O1` (stereo not shown) [Example 6, N-[3-(6,7-dihydro-5H-benzocyclohepten-2-yl)-2-oxo-oxazolidin-5-ylmethyl]acetamide], for which the MIC is more than 64 µg/mL in the assay with E. coli Tol C; more than 64 µg/mL in the assay on H. influenzae H13542; 32 µg/mL (≈ 107 µM) with M. catarrhalis BC3534; 4 µg/mL (≈ 13.3 µM) with E. faecalis MGH-2; 2 µg/mL (≈ 6.66 µM) in the assay on S pyogenes C203; 4 µg/mL (≈ 13.3 µM) with S. aureus UC-76. Moreover, in assay [1], the “Inhibitory concentration in E. coli cell-free transcription/translation assay” value is 15 µg/mL.

Take `CC(=O)NCC1CN(c2ccc3c(c2)CCCC(=O)C3)C(=O)O1` (stereo not shown) [Example 7, N-[2-Oxo-3-(6-oxo-6,7,8,9-tetrahydro-5H-benzocyclohepten-2-yl)-oxazolidin-5-ylmethyl]-acetamide]: the MIC is more than 64 µg/mL in the assay on E. coli Tol C; 32 µg/mL (≈ 101 µM) with H. influenzae H13542; 32 µg/mL (≈ 101 µM) in the assay on M. catarrhalis BC3534; 4 µg/mL (≈ 12.6 µM) in the assay with E. faecalis MGH-2; 2 µg/mL (≈ 6.32 µM) with S pyogenes C203; 4 µg/mL (≈ 12.6 µM) in the assay on S. aureus UC-76. The “Inhibitory concentration in E. coli cell-free transcription/translation assay” value in assay [1] was 12 µg/mL.

Turning to `CC(=O)NCC1CN(c2ccc3c(c2)OCCCC3=O)C(=O)O1` (stereo not shown) [Example 12, N-[2-Oxo-3-(5-oxo-2,3,4,5-tetrahydro-benzo[b]oxepin-8-yl)-oxazolidin-5-ylmethyl]-acetamide], the MIC is more than 64 µg/mL with E. coli Tol C; 32 µg/mL (≈ 101 µM) in the assay with H. influenzae H13542; 16 µg/mL (≈ 50.3 µM) in the assay with M. catarrhalis BC3534; 4 µg/mL (≈ 12.6 µM) in the assay on E. faecalis MGH-2; 2 µg/mL (≈ 6.28 µM) in the assay on S pyogenes C203; 8 µg/mL (≈ 25.1 µM) in the assay on S. aureus UC-76. Besides, the “Inhibitory concentration in E. coli cell-free transcription/translation assay” value in assay [1] amounted to 1.1 µg/mL.

Turning to `CC(=O)NCC1CN(c2ccc3c(c2)CCCCN3)C(=O)O1` (stereo not shown) [Example 14, N-[2-Oxo-3-(2,3,4,5-tetrahydro-1H-benzo[b]azepin-7-yl)-oxazolidin-5-ylmethyl]-acetamide], the MIC with E. coli Tol C is more than 64 µg/mL; in the assay with H. influenzae H13542, 64 µg/mL (≈ 211 µM); with M. catarrhalis BC3534 it was more than 64 µg/mL; with E. faecalis MGH-2, 64 µg/mL (≈ 211 µM); in the assay with S pyogenes C203 it was 16 µg/mL (≈ 52.7 µM); with S. aureus UC-76, 32 µg/mL (≈ 105 µM).

Take `CC(=O)NC[C@H]1CN(c2ccc3c(c2)CCCCC3)C(=O)O1` [drawing 69]: the MIC is more than 64 µg/mL in the assay with E. coli Tol C; more than 64 µg/mL in the assay with H. influenzae H13542; 16 µg/mL (≈ 52.9 µM) with M. catarrhalis BC3534; 4 µg/mL (≈ 13.2 µM) in the assay with E. faecalis MGH-2; 2 µg/mL (≈ 6.61 µM) in the assay on S pyogenes C203; 2 µg/mL (≈ 6.61 µM) in the assay on S. aureus UC-76.

Consider `CC(=O)NC[C@H]1CN(c2ccc3c(c2)CCCCC3)C(=O)O1` [drawing 70], for which the “Inhibitory concentration in E. coli cell-free transcription/translation assay” value in assay [1] came out at 6.6 µg/mL.

For the compound `CC(=O)NC[C@H]1CN(c2ccc3c(c2)CCC/C(=C\c2ccc(F)cc2)C3=O)C(=O)O1` [drawing 72], the MIC in the assay with E. coli Tol C is more than 64 µg/mL; in the assay on H. influenzae H13542 it was 2 µg/mL (≈ 4.73 µM); in the assay with M. catarrhalis BC3534 it was 1 µg/mL (≈ 2.37 µM). Further, the “Inhibitory concentration in E. coli cell-free transcription/translation assay” value in assay [1] stood at 1.4 µg/mL.

With `CC(=O)NC[C@H]1CN(c2ccc3c(c2)CCC/C(=C\c2ccncc2)C3=O)C(=O)O1` [drawing 72], the MIC in the assay on E. faecalis MGH-2, in the assay on S pyogenes C203 and in the assay with S. aureus UC-76 was 1 µg/mL (≈ 2.47 µM) each time.

For `CC(=O)NC[C@H]1CN(c2ccc3c(c2)CCC/C(=C\c2ccc(F)cc2)C3=O)C(=O)O1` [drawing 73], the MIC in the assay on E. faecalis MGH-2, in the assay with S pyogenes C203 and in the assay with S. aureus UC-76 was 0.5 µg/mL (≈ 1.18 µM) throughout.

As to `CC(=O)NC[C@H]1CN(c2ccc3c(c2)CCC/C(=C\c2ccncc2)C3=O)C(=O)O1` [drawing 73], the MIC with E. coli Tol C was more than 64 µg/mL; in the assay with H. influenzae H13542, 16 µg/mL (≈ 39.5 µM); in the assay on M. catarrhalis BC3534, 8 µg/mL (≈ 19.7 µM). The “Inhibitory concentration in E. coli cell-free transcription/translation assay” value in assay [1] came out at 2.7 µg/mL.

As for “N-[2-Oxo-3-(2,3,4,5-tetrahydro-1H-benzo [c] azepin-7-yl)-oxazolidin-5-ylmethyl]-acetamide and N-[2-Oxo-3-(2,3,4,5-tetrahydro-1H-benzo[d]azepin-7-yl)-oxazolidin-5-ylmethyl]-acetamide [Example 15]”, the “Minimum Inhibitory Concentrations, E. coli Tol C” value in the assay with E. coli Tol C (Gram Negative Bacteria, strain Tol C) was more than 64 µg/mL. Besides, the “Minimum Inhibitory Concentrations, H. influenzae H13542” value in the assay on H. influenzae H13542 is more than 64 µg/mL. The “Minimum Inhibitory Concentrations, M. catarrhalis BC3534” value with M. catarrhalis BC3534 is more than 64 µg/mL. For the same compound, the “Minimum Inhibitory Concentrations, E. faecalis MGH-2” value with E. faecalis MGH-2 is 64 µg/mL. For the same compound, in the assay on S pyogenes C203, the “Minimum Inhibitory Concentrations, S pyogenes C203” value came out at 64 µg/mL. Also, the “Minimum Inhibitory Concentrations, S. aureus UC-76” value in the assay on S. aureus UC-76 is 64 µg/mL. For the same compound, the “Inhibitory concentration in E. coli cell-free transcription/translation assay” value in assay [1] worked out at 11 µg/mL.
